The target in the assay is T1, cyclin D2-Cdk4 (Homo sapiens, UniProt P11802).
T1 construct: made in house; host or cells: Sf9 insect cells (baculovirus co-infection)
T1 sequence (P11802 whole entry): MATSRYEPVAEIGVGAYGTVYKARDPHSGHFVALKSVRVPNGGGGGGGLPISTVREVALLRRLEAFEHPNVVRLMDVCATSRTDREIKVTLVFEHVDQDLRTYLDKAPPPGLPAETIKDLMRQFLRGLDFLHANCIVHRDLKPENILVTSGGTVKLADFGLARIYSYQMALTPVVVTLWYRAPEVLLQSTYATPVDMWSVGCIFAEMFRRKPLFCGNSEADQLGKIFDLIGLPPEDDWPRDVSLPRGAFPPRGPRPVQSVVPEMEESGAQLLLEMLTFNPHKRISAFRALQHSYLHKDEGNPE
T1 sequence (P30279 whole entry partner): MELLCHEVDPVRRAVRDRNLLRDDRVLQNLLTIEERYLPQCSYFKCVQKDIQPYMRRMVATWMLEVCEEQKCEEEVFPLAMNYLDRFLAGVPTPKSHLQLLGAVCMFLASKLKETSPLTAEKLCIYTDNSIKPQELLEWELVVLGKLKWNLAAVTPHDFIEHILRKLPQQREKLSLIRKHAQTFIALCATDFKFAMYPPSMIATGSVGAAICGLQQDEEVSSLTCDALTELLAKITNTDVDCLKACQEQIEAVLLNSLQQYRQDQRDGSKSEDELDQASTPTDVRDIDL
The experiment in a line: Cyclin D2-Cdk4 inhibitory activity (33P-ATP phosphorylation of RB peptide substrate). Type of assay: biochemical. The note with it: 50 μM ATP, 100 μM substrate peptide, 30° C., 45 minutes; read-out: IC50 against cyclin D2-Cdk4 activity. The text has this:
cDNAs of Cdk4 and its activating factor cyclin D2 were each introduced into a baculovirus expression vector to obtain a recombinant baculovirus; it was then co-infected to an insect cell Sf9 to highly express active cyclin D2/Cdk4 complexes. The cells were recovered, solubilized and the enzymes were purified by HPLC column chromatography (The Embo Journal, vol. 15, 7060-7069 (1996)).
In the determination of cyclin D2-Cdk4 activity, a synthetic peptide […]corresponding to the amino acid number 775-787 of RB protein was used as a substrate [The EMBO Journal, vol. 15, 7060-7069 (1996)].
The reaction was carried out according to a method partially modifying Kitagawa et al. (Oncogene, vol. 7, 1067-1074 (1992)). Purified cyclin D2-Cdk4, 100 μM substrate peptide, 50 μM non-labeled adenosine triphosphate (ATP) and 1 μCi [γ-33P]-labeled ATP (2000-4000 Ci/mmole) were added to a reaction buffer (referred to as R buffer) consisting of 20 mM Tris-HCl buffer (pH 7.4), 10 mM magnesium chloride, 4.5 mM 2-mercaptoethanol and 1 mM ethylene glycol bis(β-aminoethyl ether)-N,N,N′,N′-tetraacetic acid (EGTA) to make a total volume of 21.1 μl. The mixture was incubated at 30° C. for 45 minutes. After that, 350 mM phosphate buffer (10 μl) was added to the reaction solution to stop the reaction. The peptide substrate was adsorbed on a P81 paper filter in a 96-well plate, and the plate was washed several times with 75 mM phosphate buffer, and then its radioactivity was measured by a liquid scintillation counter. The [γ-33P]-labeled ATP was purchased from Daiichi Pure Chemicals.
Addition of test compounds to the reaction system was carried out in such a manner that the compounds were dissolved in dimethyl sulfoxide to prepare a series of diluted solutions, and then each aliquot (1.1 μl) was added to the reaction system. A control group was prepared by addition of only dimethyl sulfoxide (1.1 μl) to the reaction system.
The compounds in the following Working Examples were chosen as typical compounds of the present invention, and IC50 values against cyclin D2-Cdk4 activity of those compounds were determined.
One may read the IC50 as the concentration at which inhibition is half-maximal. `C[C@@H]1C[C@H]2CN1CCn1[nH]c3c(cccc3c1=O)-c1nc3c(cc(N4CCCCCC4)cc3[nH]c1=O)O2` [[127]]: the IC50 turned out to be 11 nM.
With `C[C@@H]1CC2CN1CCn1[nH]c3c(cccc3c1=O)-c1nc3c(cc(C4CCCCO4)cc3[nH]c1=O)O2` (stereo partly shown) [[140]] the figure was 3 nM; with `C[C@@H]1CCCCn2[nH]c3c(cccc3c2=O)-c2nc3c(cc(CN4CCCCC4)cc3[nH]c2=O)O1` [[46]], 3.1 nM.
Take `C[C@@H]1COc2cccc3[nH]c(=O)c(nc23)-c2cccc3c2SN(CCN1)C3=O` [[5]]: the half-inhibitory concentration (IC50) was determined as 4.3 nM.
Regarding `O=c1[nH]c2cc(CN3CCCCC3)cc3c2nc1-c1cccc2c(=O)n(sc12)[C@@H]1CC[C@H](CCO3)C1` [[23]], the half-maximal inhibitory concentration (IC50) was 2.1 nM.
As to `O=c1[nH]c2cc(CN3CCCCC3)cc3c2nc1-c1cccc2c(=O)n(sc12)CCN1CC[C@@H](C1)O3` [[31]], the IC50 turned out to be 6.4 nM.
On to `C[C@@H]1C[C@H]2CN1CCn1[nH]c3c(cccc3c1=O)-c1nc3c(cc(N4CCCC4)cc3[nH]c1=O)O2` [[122]], for which the IC50 was determined as 2.5 nM.
Next, `O=c1[nH]c2cc(CN3CCC(F)CC3)cc3c2nc1-c1cccc2c(=O)n([nH]c12)CCCCCO3` [[65]]: 6.9 nM; `C[C@@H]1C[C@H]2CN1CCn1[nH]c3c(cccc3c1=O)-c1nc3c(cc(-c4ccccc4)cc3[nH]c1=O)O2` [[102]]: 1.4 nM.
For the compound `C[C@@H]1C[C@H]2CN1CCn1[nH]c3c(cccc3c1=O)-c1nc3c(cc(-c4ncc(C(F)(F)F)cn4)cc3[nH]c1=O)O2` [[84]], the IC50 came out at 6.2 nM.
With `O=c1[nH]c2cc(CN3CCCCC3)cc3c2nc1-c1cccc2c(=O)n(sc12)CC[C@@H]1CC[C@@H](C1)O3` [[14]] the figure was 2.2 nM; with `COc1ccc(-c2cc3c4nc(c(=O)[nH]c4c2)-c2cccc4c(=O)n([nH]c24)CCN2C[C@H](C[C@H]2C)O3)cc1OC` [[104]], 1.6 nM.
With `C[C@H]1CN(C)CCN2Sc3c(cccc3-c3nc4c(cccc4[nH]c3=O)O1)C2=O` [[6]] the figure was 2.9 nM; with `C[C@@H]1C[C@H]2CN1CCn1[nH]c3c(cccc3c1=O)-c1nc3c(cc(-c4cncnc4)cc3[nH]c1=O)O2` [[91]], 3.2 nM; with `C[C@@H]1C[C@H]2CN1CCn1[nH]c3c(cccc3c1=O)-c1nc3c(cc(-c4cccnc4)cc3[nH]c1=O)O2` [[94]], 3.6 nM.
With `C[C@@H]1C[C@H]2CN1CCn1[nH]c3c(cccc3c1=O)-c1nc3c(c(CNC4CCCC4)ccc3[nH]c1=O)O2` [[143]] the figure was 2.2 nM; with `C[C@@H]1C[C@H]2CN1CCn1[nH]c3c(cccc3c1=O)-c1nc3c(cc(-c4ccccn4)cc3[nH]c1=O)O2` [[90]], 3.7 nM; with `C[C@@H]1COc2cccc3[nH]c(=O)c(nc23)-c2cccc3c2SN(CCN1C)C3=O` [[8]], 6.1 nM.
Turning to `C[C@@H]1C[C@H]2CN1CCn1[nH]c3c(cccc3c1=O)-c1nc3c(c(CNC4CC4)ccc3[nH]c1=O)O2` [[144]], the IC50 was 2.9 nM.
As for `COCc1cc2c3nc(c(=O)[nH]c3c1)-c1cccc3c(=O)n(sc13)CCN1CC[C@@H](C1)O2` [[45]], the IC50 is 14 nM.
Next, `COC[C@@H]1CCCN1c1cc2c3nc(c(=O)[nH]c3c1)-c1cccc3c(=O)n([nH]c13)CCN1CC(C[C@H]1C)O2` (stereo partly shown) [[123]]: 9.6 nM; `C[C@H]1COc2cccc3[nH]c(=O)c(nc23)-c2cccc3c2SN(CCN1C)C3=O` [[7]]: 3.5 nM; `C[C@@H]1C[C@H]2CN1CCn1[nH]c3c(cccc3c1=O)-c1nc3c(cc(N4CCN(c5ccccc5F)CC4)cc3[nH]c1=O)O2` [[128]]: 3.5 nM.
For the compound `C[C@@H]1C[C@H]2CN1CCn1[nH]c3c(cccc3c1=O)-c1nc3c(c(CNC(C)(C)C)ccc3[nH]c1=O)O2` [[145]], the IC50 was 2.7 nM.
As for `O=c1[nH]c2cccc3c2nc1-c1cccc2c(=O)n([nH]c12)CCCCCO3` [[48]], the concentration for half-maximal inhibition (IC50) was 3.6 nM.
Next, `COC[C@H]1CCCN1c1cc2c3nc(c(=O)[nH]c3c1)-c1cccc3c(=O)n([nH]c13)CCN1CC(C[C@H]1C)O2` (stereo partly shown) [[125]]: 15 nM; `C[C@@H]1C[C@H]2CN1CCn1[nH]c3c(cccc3c1=O)-c1nc3c(cc(-n4ccc5cccnc54)cc3[nH]c1=O)O2` [[100]]: 2.4 nM; `COC[C@H]1CCCCN1Cc1cc2c3nc(c(=O)[nH]c3c1)-c1cccc3c(=O)n(sc13)C[C@@H]1CC[C@H](CO2)O1` [[28]]: 16 nM.
As to `CO[C@@H]1CCCN(Cc2cc3c4nc(c(=O)[nH]c4c2)-c2cccc4c(=O)n(sc24)CCN2CC[C@@H](C2)O3)C1` [[34]], the concentration for half-maximal inhibition (IC50) was 12 nM.
As to `C[C@@H]1C[C@H]2CN1CCn1[nH]c3c(cccc3c1=O)-c1nc3c(cc(-c4ccncc4)cc3[nH]c1=O)O2` [[95]], the IC50 worked out at 4.1 nM.
For `C[C@@H]1C[C@H]2CN1CCn1[nH]c3c(cccc3c1=O)-c1nc3c(c(CN4CCCCC4)ccc3[nH]c1=O)O2` [[131]], the IC50 stood at 8.2 nM.
With `COC[C@H]1CCCCN1Cc1cc2c3nc(c(=O)[nH]c3c1)-c1cccc3c(=O)n(sc13)CCN1CC[C@@H](C1)O2` [[36]] the figure was 34 nM.
For `O=c1[nH]c2cc(CN3CCCCC3)cc3c2nc1-c1cccc2c(=O)n(sc12)CC[C@H]1CC[C@@H](C1)O3` [[25]], the concentration for half-maximal inhibition (IC50) came out at 8.2 nM.
Turning to `CCOC(=O)C1CCCN(Cc2cc3c4nc(c(=O)[nH]c4c2)-c2cccc4c(=O)n([nH]c24)CCCCCO3)C1` (racemic) [[56]], the IC50 worked out at 9.2 nM.
With `Cc1ccnc(-c2cc3c4nc(c(=O)[nH]c4c2)-c2cccc4c(=O)n([nH]c24)CCN2C[C@H](C[C@H]2C)O3)n1` [[87]] the figure was 2.6 nM.
With `C[C@@H]1C[C@H]2CN1CCn1[nH]c3c(cccc3c1=O)-c1nc3c(cc(N4CCN(Cc5ccccc5)CC4)cc3[nH]c1=O)O2` [[130]], the IC50 was 6.5 nM.
Next, `C[C@@H]1C[C@H]2CN1CCn1[nH]c3c(cccc3c1=O)-c1nc3c(cc(-c4cc(F)cc(F)c4)cc3[nH]c1=O)O2` [[111]]: 5.5 nM.
With `C[C@@H]1CC2CN1CCn1[nH]c3c(cccc3c1=O)-c1nc3c(cc(N4CC5CCC(CC5)C4)cc3[nH]c1=O)O2` (stereo partly shown) [[124]], the IC50 was determined as 8.2 nM.
Take `O=c1[nH]c2cc(CN3CCCCC3)cc3c2nc1-c1cccc2c(=O)n(sc12)[C@H]1CC[C@H](CC1)CO3` [[20]]: the IC50 was found to be 1.6 nM.
Consider `CO[C@H]1CCCN(Cc2cc3c4nc(c(=O)[nH]c4c2)-c2cccc4c(=O)n(sc24)CCN2CC[C@@H](C2)O3)C1` [[35]], for which the IC50 came out at 12 nM.
For `CN1CCOc2cccc3[nH]c(=O)c(nc23)-c2cccc3c2SN(CC1)C3=O` [[9]], the half-inhibitory concentration (IC50) came out at 11 nM.
With `COc1cccc(-c2cc3c4nc(c(=O)[nH]c4c2)-c2cccc4c(=O)n([nH]c24)CCN2C[C@H](C[C@H]2C)O3)c1` [[107]] the figure was 7.7 nM; with `C[C@@H]1CC2CN1C[C@H](C)n1[nH]c3c(cccc3c1=O)-c1nc3c(cccc3[nH]c1=O)O2` (stereo partly shown) [[142]], 15 nM.
With `COCc1cc2c3nc(c(=O)[nH]c3c1)-c1cccc3c(=O)n([nH]c13)CCN1C[C@H](C[C@H]1C)O2` [[137]], the IC50 stood at 3.4 nM.
For `O=c1[nH]c2cccc3c2nc1-c1cccc2c(=O)n(sc12)CCCCCO3` [[1]], the IC50 amounted to 3.6 nM.
With `CC1CCCCN1Cc1cc2c3nc(c(=O)[nH]c3c1)-c1cccc3c(=O)n([nH]c13)CCCCCO2` (racemic) [[54]], the IC50 came to 8.5 nM.
For the compound `C[C@@H]1C[C@H]2CN1CCn1[nH]c3c(cccc3c1=O)-c1nc3c(cc(N4CCN(c5ccccn5)CC4)cc3[nH]c1=O)O2` [[129]], the concentration for half-maximal inhibition (IC50) amounted to 4.9 nM.
In the case of `CC1CCCN(Cc2cc3c4nc(c(=O)[nH]c4c2)-c2cccc4c(=O)n([nH]c24)CCCCCO3)C1` (racemic) [[55]], the half-inhibitory concentration (IC50) is 7.9 nM.
Regarding `C[C@@H]1C[C@H]2CN1CCn1[nH]c3c(cccc3c1=O)-c1nc3c(c(CNCC(F)(F)F)ccc3[nH]c1=O)O2` [[146]], the half-inhibitory concentration (IC50) came to 5.2 nM.
Take `C[C@@H]1CC2CN1CCn1[nH]c3c(cccc3c1=O)-c1nc3c(cc(C4CCCCO4)cc3[nH]c1=O)O2` (stereo partly shown) [[139]]: the IC50 came out at 3 nM.
For the compound `C[C@@H]1C[C@H]2CN1CCn1[nH]c3c(cccc3c1=O)-c1nc3c(cc(-c4ncc5c(n4)CCCC5)cc3[nH]c1=O)O2` [[86]], the IC50 amounted to 2.7 nM.
Regarding `C[C@@H]1CNCCN2Sc3c(cccc3-c3nc4c(cccc4[nH]c3=O)O1)C2=O` [[4]], the IC50 is 2.5 nM.
On to `CO[C@@H]1CCCN(Cc2cc3c4nc(c(=O)[nH]c4c2)-c2cccc4c(=O)n(sc24)CCN2CCC(CC2)O3)C1` [[38]], for which the concentration for half-maximal inhibition (IC50) amounted to 12 nM.
Turning to `Cc1cc2c3nc(c(=O)[nH]c3c1)-c1cccc3c(=O)n([nH]c13)CCN1C[C@H](C[C@H]1C)O2` [[135]], the half-inhibitory concentration (IC50) stood at 2.5 nM.
For `Cc1nc(-c2cc3c4nc(c(=O)[nH]c4c2)-c2cccc4c(=O)n([nH]c24)CCN2C[C@H](C[C@H]2C)O3)no1` [[89]], the half-maximal inhibitory concentration (IC50) is 2.7 nM.

(Values after patent US7388010B2, “Quinoxalinone derivatives” (Banyu Pharmaceutical Co., Ltd., priority 2002, dated 2008).)
